Data set [1] can be described thus: Stability in medium collected from human HEK293T cells assessed as intact compound level at 1 mM incubated up to 48 hrs at 37 degC. In kind it is ADME, cell-based, HEK-293T. Conditions: read-out: Stability.
The nature of data set [2]: Stability in medium collected from human HEK293T cells assessed as compound degradation level at 1 mM incubated up to 48 hrs at 37 degC. Conditions: read-out: Activity. In kind it is ADME, cell-based, HEK-293T.
Data set [3] is described as follows: Stability in HEK293T cellular extract assessed as compound degradation level at 1 mM incubated after 48 hrs at 37 degC. Format: ADME, HEK-293T. Conditions: human, read-out: Activity.
Data set [4] relates to HEK-293T. As to the kind of experiment: Cytotoxicity in Fhit-positive HEK293T cells after 72 hrs bu MTT assay. Conditions: Homo sapiens. Format: functional, cell-based. (Formazan colour is commonly taken as a measure of viable cells.)
Data set [5] deals with Bis(5'-adenosyl)-triphosphatase (Homo sapiens, UniProt P49789). As to the kind of experiment: Inhibition of Fragile histidine triad protein hydrolytic activity.
A short description of data set [6]: Drug uptake in Fhit-positive HEK293T cells cytoplasmic compartment at 7.5 uM after 24 hrs using fluorescein labeled compound. In kind it is ADME, cell-based. Conditions: human, hek-293t.
Data set [7] in a line: Drug uptake in Fhit-positive HEK293T cells Vesicular structures compartment at 7.5 uM after 24 hrs using fluorescein labeled compound. In kind it is ADME, cell-based. Conditions: human, hek-293t.
The nature of data set [8]: Drug uptake in Fhit-positive HEK293T cells at 7.5 uM after 24 hrs using fluorescein labeled compound. Format: ADME, cell-based. Conditions: human, hek-293t.
Data set [9] has as its system HEK-293T. Description: Induction of apoptosis in Fhit-positive HEK293T cells assessed as caspase-3 activation at 5 to 10 uM after 18 hrs by fluorescent assay. In kind it is functional, cell-based. Conditions: Homo sapiens.
Data set [10] can be described thus: Stability in human HEK293T cellular extract assessed as intact compound level at 1 mM incubated after 48 hrs at 37 degC. Format: ADME, cell-based, HEK-293T. Conditions: read-out: Stability.
The subject of data set [11] is HEK-293T. Description: Induction of apoptosis in Fhit-positive HEK293T cells assessed as caspase-3 activation at 0.5 to 1 uM after 18 hrs by fluorescent assay. Format: functional, Homo sapiens.
In data set [12] the test system is HEK-293T. As to the kind of experiment: Induction of apoptosis in Fhit-positive HEK293T cells assessed as caspase-8 activation at 5 uM after 18 hrs by luminescent assay. Format: functional, Homo sapiens.
The test system of data set [13] is HEK-293T. As to the kind of experiment: Induction of apoptosis in Fhit-positive HEK293T cells at 20 uM by Annexin-V assay (reference value: 3.9 +/- 0.95%). Format: functional, Homo sapiens.
Data set [14] concerns HEK-293T. Description: Induction of apoptosis in Fhit-positive HEK293T cells assessed as caspase-9 activation at 5 uM after 18 hrs by luminescent assay. Format: functional, Homo sapiens.
Data set [15] has as its system HEK-293T. As to the kind of experiment: Induction of apoptosis in Fhit-positive HEK293T cells at 5 uM after 48 hrs by Annexin-V assay (reference value: 3.9 +/- 0.95%). Format: functional, Homo sapiens.
The next data set has as its system HeLa. Description: Cytotoxicity in Fhit-negative human HeLa cells after 72 hrs bu MTT assay. In kind it is functional, cell-based.
In data set [16] the test system is HEK-293T. Description: Induction of apoptosis in Fhit-positive HEK293T cells assessed as caspase-8 activation at 5 uM in presence of Fhit-specific siRNA after 18 hrs by fluorescent assay. Format: functional, cell-based. Conditions: Homo sapiens.
The test system of data set [17] is HEK-293T. Description: Induction of apoptosis in Fhit-positive HEK293T cells at 5 uM after 24 hrs by Annexin-V assay (reference value: 3.9 +/- 0.95%). Format: functional, Homo sapiens.
Another data set relates to HL-60. As to the kind of experiment: Cytotoxicity in human HL60 cells after 72 hrs bu MTT assay. Format: functional, cell-based. Conditions: HL-60, 72 h.
Data set [18] concerns HEK-293T. As to the kind of experiment: Induction of apoptosis in Fhit-positive HEK293T cells assessed as caspase-3 activation at 0.5 to 5 uM after 18 hrs by fluorescent assay. In kind it is functional, Homo sapiens.
For data set [19], the system named is HEK-293T. As to the kind of experiment: Induction of apoptosis in Fhit-positive HEK293T cells assessed as caspase-3 activation at 5 uM in presence of Fhit-specific siRNA after 18 hrs by fluorescent assay. In kind it is functional, cell-based. Conditions: Homo sapiens.
Data set [20] relates to HEK-293T. As to the kind of experiment: Induction of apoptosis in Fhit-positive HEK293T cells assessed as caspase-3 activation at 5 uM after 18 hrs by fluorescent assay. In kind it is functional, Homo sapiens.
The subject of a further data set is A549. Description: Cytotoxicity in Fhit-negative human A549 cells after 72 hrs bu MTT assay. Format: functional, cell-based. Conditions: A549, 72 h.

The source made the active and inactive calls. No cut-off for these calls is given here.

Chain of Bis(5'-adenosyl)-triphosphatase (P49789 whole entry): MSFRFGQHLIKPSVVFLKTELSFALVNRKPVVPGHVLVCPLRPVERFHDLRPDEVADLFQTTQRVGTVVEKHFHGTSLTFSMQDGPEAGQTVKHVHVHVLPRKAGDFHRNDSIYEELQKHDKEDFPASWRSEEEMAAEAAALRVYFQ

Consider `Nc1ncnc2c1ncn2[C@@H]1O[C@H](COP(=O)(O)OP(=O)(O)OP(=O)(O)OP(=O)(O)OC[C@H]2O[C@@H](n3cnc4c(N)ncnc43)[C@H](O)[C@@H]2O)[C@@H](O)[C@H]1O` [DIADENOSINE TETRAPHOSPHATE], for which, in data set [1], the remaining at 48 h, 1000 µM was 95%. Further, the degraded at 48 h, 1000 µM in data set [2] stood at 95%. Moreover, the metabolised at 48 h, 1000 µM in data set [3] is 92.8%.
For orientation: IC50 means the concentration that gives 50% inhibition. A high value points to weaker potency. As usually defined, the Ki is the dissociation constant of the complex between target and ligand, obtained from inhibition or displacement. Low values mean a stronger hold on the target, high ones a looser hold on the target. `Nc1ncnc2c1ncn2[C@@H]1O[C@H](COP(=O)(S)OCC(COP(=O)(S)OC[C@H]2O[C@@H](n3cnc4c(N)ncnc43)[C@H](O)[C@@H]2O)(COP(=O)(S)OC[C@H]2O[C@@H](n3cnc4c(N)ncnc43)[C@H](O)[C@@H]2O)COP(=O)(S)OC[C@H]2O[C@@H](n3cnc4c(N)ncnc43)[C@H](O)[C@@H]2O)[C@@H](O)[C@H]1O` (mixture of isomers) came in with an IC50 in the data set with HEK-293T [4] of over 80 µM. Moreover, the affinity in [5], expressed as Ki, was 0.035 µM. Further, the remaining at 48 h, 1000 µM in data set [1] amounted to 97%.
Regarding `Nc1ncnc2c1ncn2[C@@H]1O[C@H](COP(=O)(S)OCC(O)COP(=O)(S)OCCCCCCNC(=O)c2ccc3c(c2)C2(OC3=O)c3ccc(O)cc3Oc3cc(O)ccc32)[C@@H](O)[C@H]1O` (some centres undefined), the Drug uptake result in [6], in data set [7] and in data set [8] was “Active” in each case.
`Nc1ncnc2c1ncn2[C@@H]1O[C@H](COP(=O)(S)OCC(O)COP(=O)(S)OC[C@H]2O[C@@H](n3cnc4c(N)ncnc43)[C@H](O)[C@@H]2O)[C@@H](O)[C@H]1O` (mixture of isomers): the half-maximal inhibitory concentration (IC50) is 17.5 µM with HEK-293T [4], over 80 µM with HeLa, 9 µM with HL-60 and over 80 µM in the data set on A549. Moreover, affinity in data set [5] was put at a Ki of 0.035 µM. Further, the result with HEK-293T [9], in the data set on HEK-293T [16] and in the data set with HEK-293T [19] was inactive. Besides, the results for the remaining at 48 h, 1000 µM in [10] and in data set [1] were 90% and 97%, respectively. The Activity with HEK-293T [11] was 10%; with HEK-293T [12], 23%; in the data set with HEK-293T [13], 12.27%; in the data set on HEK-293T [14] it was 21%; with HEK-293T [15], 14.24%; with HEK-293T [17], 10.5%. The Activity amounted to 17% in the data set on HEK-293T [18] and 27% with HEK-293T [20].
`Nc1ncnc2c1ncn2[C@@H]1O[C@H](COP(=O)(S)OCC(COP(=O)(S)OC[C@H]2O[C@@H](n3cnc4c(N)ncnc43)[C@H](O)[C@@H]2O)OP(=O)(O)S)[C@@H](O)[C@H]1O` (mixture of isomers) returned an IC50 in the data set on HEK-293T [4] of over 80 µM. The same molecule gave a Ki in data set [5] of 0.035 µM. The remaining at 48 h, 1000 µM in [1] amounted to 97%.
Consider `Nc1ncnc2c1ncn2[C@@H]1O[C@H](COP(=O)(S)OCC(COP(=O)(O)S)(COP(=O)(S)OC[C@H]2O[C@@H](n3cnc4c(N)ncnc43)[C@H](O)[C@@H]2O)COP(=O)(S)OC[C@H]2O[C@@H](n3cnc4c(N)ncnc43)[C@H](O)[C@@H]2O)[C@@H](O)[C@H]1O` (mixture of isomers), for which the IC50 in the data set on HEK-293T [4] was over 80 µM. The same molecule gave a Ki in [5] of 0.035 µM. Besides, the remaining at 48 h, 1000 µM in [1] came out at 97%.
The like results for `Nc1ncnc2c1ncn2[C@@H]1O[C@H](COP(=O)(S)OCC(COP(=O)(S)OC[C@H]2O[C@@H](n3cnc4c(N)ncnc43)[C@H](O)[C@@H]2O)OP(=O)(S)OC[C@H]2O[C@@H](n3cnc4c(N)ncnc43)[C@H](O)[C@@H]2O)[C@@H](O)[C@H]1O` (mixture of isomers) were, in that order, over 80 µM, 0.035 µM and 97%.
On to `Nc1ncnc2c1ncn2[C@@H]1O[C@H](COP(=O)(O)OP(=O)(O)OP(=O)(O)OC[C@H]2O[C@@H](n3cnc4c(N)ncnc43)[C@H](O)[C@@H]2O)[C@@H](O)[C@H]1O`, for which the remaining at 48 h, 1000 µM in [1] is 95%. Besides, the degraded at 48 h, 1000 µM in [2] was determined as 95%. Moreover, in [3], the metabolised at 48 h, 1000 µM is 88.7%.

Values taken from ChEMBL document CHEMBL1811807, “Evaluation of influence of Ap4A analogues on Fhit-positive HEK293T cells; cytotoxicity and ability to induce apoptosis” (Bioorg Med Chem, 2011).
